Source: patent US20180193472A1, “TRANSPORT PEPTIDES FOR TRANSCELLULAR DELIVERY OF BIOLOGICAL AND THERAPEUTIC AGENTS” (priority 2017, published 2018)
Where a SMILES comes first, the peptide text is derived from it. Where no end group is shown, it is not given here. The star is where a group is joined. 5FAM = O=C1OC2(c3ccc(O)cc3Oc3cc(O)ccc32)c2ccc(C(=O)*)cc21

Experiments:
[1] = system: monolayer of MDCKII cells; assay: Transwell apparent permeability (Papp) across a monolayer of MDCKII cells grown on a porous membrane; type: in vitro ADME, canine
Experimental: (§1) The transport peptides of the present invention were identified by modifying peptide sequences and testing these peptides in a Transwell assay measuring in vitro transcellular transport. The Transwell assay consists of two chambers separated from each other by a permeable porous membrane. Cells, most commonly canine kidney epithelial MDCK cells or human intestinal epithelial Caco-2 cells, are grown on the membrane and represent a model biological barrier. The drug, or peptide of interest, is added to the input chamber and the concentration in the receiver chamber is measured after a period of time. The rate at which the drug or peptide permeates across the cells (and the porous membrane) is the rate of drug's concentration increase in the receiver chamber after a period of time. The rate can be calculated and expressed in terms of apparent permeability (Papp), which takes into account the input concentration, the rate of concentration increase in the receiver well, solution volume in the receiver well, and the area of the cell monolayer. Substances with low permeability generally have Papp values on the order of 10^−7 cm/s, and substances with high permeabilities generally have Papp values on the order of 10^−5 cm/s or higher. There are several published reports where the CPPs were investigated for their ability to deliver cargo transcellularly using a Transwell assay: Violini et al reported low permeabilities of 3.1×10^−8 cm/s and 7.4×10^−8 cm/s for TC-radiolabeled Tat 48-57 across Caco-2 and MDCK II cells, respectively.
(§2) The apparent permeabilities (Papp) of four compounds were determined across a monolayer of MDCKII cells, grown on a porous membrane. The four compounds were the following and are represented in FIGS. 2-3: 1) a transport peptide of the present invention, CL, attached to 5-Carboxyfluorescein (MW: 376.3) and designated as [5-FAM]CL peptide, 2) 5-Carboxyfluorescein attached to H3R8 ([5-FAM] H3R8 MW: 2,263.5 and the H3R8 peptide is shown in FIG. 4b) 3) 5-Carboxyfluorescein designated as 5-FAM and 4) Lucifer Yellow designated as LY (MW:457.25, Product Number L-453, Life Technologies). The following concentrations of [5-FAM] CL, [5-FAM] H3R8, 5-FAM, and LY compound were applied to the monolayer of MDCKII cells at approximately 0.2 μM, 0.4-0.9 μM, 4 μM, and 100 μM, respectively. The peptides and dyes were resuspended in HEPES- and glucose-supplemented 1×HBSS buffer. The permeability experiments were conducted for 1 hour at 37° C. Error bars represent standard error (SE). CL and H3R8 are conjugated to 5-FAM at the N-termini. H3R8 is based on oligoarginine CPPs that has been reported to deliver cargo intracellularly. LY is used to assess monolayer integrity (Papp≤10̂−6 cm/s verifies monolayer integrity). The permeability of LY is on the order of 10̂−7 cm/s and is thus consistent with literature values for a monolayer with good barrier properties. [5-FAM]

[2] = system: monolayer of MDCKII cells; type: cell-based, canine
From the text: The inventors identified cationic transport peptides that are capable of transcellular delivery of cargo across a monolayer of MDCKII cells grown on a porous membranes. One embodiment of the invention is a CL peptide, conjugated to a fluorescent dye 5-FAM (fluorescein), has a Papp value of (1.3±0.2)×10^−5 cm/s, which approaches the permeability rates of the fast-permeating molecules into the brain (Papp ≈10^−5 to 10^−4 cm/s). The CL peptide, conjugated to 5-FAM, enhanced 30-fold the rate of permeation of 5-FAM across the biological barrier. This is especially significant because MDCKII cells are virtually impermeable to 5-FAM (Papp=(4.1±0.6)×10^−7 cm/s) unless it is conjugated to the novel peptide. In addition, the CL peptide was able to deliver 5-FAM without compromising the junctional integrity of the model cell monolayer. Junctional integrity of the monolayer can be measured by transepithelial electrical resistance (TEER), which signifies resistance to the flow of ions across a cell monolayer. If the tight junctions between the cells are compromised, the TEER decreases.
FIG. 3 illustrates the % TEER change in the monolayer of MDCKII cells. Error bars represent SD with n=3 for all except LY, n=6. […] CL and [5-FAM] […] The data indicates the high permeability rates, observed for a transport peptide of the present invention, [5-FAM] […]

[3] = Transwell apparent permeability (Papp) across a monolayer of MDCKII cells grown on a porous membrane; type: in vitro ADME, canine; settings: MDCK
Experimental: as §1, §2

Question: With O=C(O)c1ccc2c(c1)C(=O)OC21c2ccc(O)cc2Oc2cc(O)ccc21 [5-FAM, 5-Carboxyfluorescein] as the molecule, how does the “apparent permeability (Papp)” value ([1]; monolayer of MDCKII cells on porous membrane, 1 hour at 37° C, HEPES- and glucose-supplemented 1×HBSS) read?
Answer: (4.1±0.6)×10^−7 cm/s

Question: Which “% TEER change after the permeability experiment” value [2] does the source give for CC(=O)N[C@@H](CCCCNC(=O)c1ccc2c(c1)C(=O)OC21c2ccc(O)cc2Oc2cc(O)ccc21)C(=O)NCC(=O)N[C@@H](CCCNC(=N)N)C(=O)N[C@@H](CC(C)C)C(=O)N[C@@H](CC(C)C)C(=O)N[C@@H](CCCNC(=N)N)C(=O)N[C@@H](CC(C)C)C(=O)N[C@@H](CC(C)C)C(=O)N[C@@H](CCCNC(=N)N)C(=O)N[C@@H](CCCNC(=N)N)C(=O)N[C@@H](CCCNC(=N)N)C(=O)N[C@@H](CCCNC(=N)N)C(=O)N[C@@H](CCCNC(=N)N)C(=O)N[C@@H](CCCNC(=N)N)C(=O)N[C@@H](CCCNC(=N)N)C(=O)N[C@@H](CCCNC(=N)N)C(N)=O [[5-FAM] CL] (Ac-K(5FAM)GRLLRLLRRRRRRRR-NH2; N-terminus and C-terminus assumed) here?
Answer: did not result in a significant % TEER decrease

Question: And the “enhancement of the rate of permeation (Papp) relative to 5-FAM” value ([1]; MDCK)?
Answer: 30 fold

Question: And the Papp [3]?
Answer: 13 ×10⁻⁶ cm/s

Question: For HHHRRRRRRRR [H3R8], which “ability to deliver 5-FAM across a monolayer of MDCKII cells” value ([1]; MDCK) is on record?
Answer: not capable to deliver 5-FAM across a monolayer of MDCKII cells

Question: For KGRLLRLLRRRRRRRR [CL peptide], which “% TEER change after the permeability experiment” value [2] is on record?
Answer: did not significantly affect the TEER

Question: With Lucifer Yellow [LY] as the molecule, how does the “apparent permeability (Papp)” value ([1]; MDCK) read?
Answer: ~10̂−7 cm/s
